In patent publication US20220288001A1, “CREATINE FOR IMMUNOTHERAPY” (The Regents of the University of California, priority 2019, published 2022):
“Also recorded” adds a separate entry of the source.

Test system: B16-OVA melanoma
Test: B16-OVA melanoma model in C57BL/6J WT mice, creatine supplementation
Type: in vivo, mouse
Details: i.p. injection or dietary supplementation, both routes
Protocol: To establish solid tumors, mice were s.c. injected above the right flank with 1×10^6 B16-OVA or 3×10^5 MC38 cells. Before injection, cells in log phase of growth were harvested and suspended in phosphate-buffered saline (PBS), and 50 μl of cell suspension were injected subcutaneously above the flank. Tumor size was periodically measured with a digital Vernier caliper (Thermo Fisher Scientific). For creatine supplementation via i.p. injection, […] monohydrate (cat #C3630, Sigma-Aldrich) was dissolved in sterile PBS and i.p. injected to experimental animals daily at a dose of 10.5 mg per animal per injection. […] To study the effects of creatine supplementation on suppressing tumor growth, B6 mice were inoculated with B16-OVA tumor cells and monitored for tumor growth, with or without receiving creatine supplementation via i.p. injection or diet. […] To study the T cell-dependence of creatine supplementation induced anti-tumor effects, B6-OVA tumor growth was monitored and compared in B6 mice receiving i.p. injection of an anti-CD3 T cell depleting antibody (clone RMP1-14; 100 μg/mouse/injection, twice per week) or an isotype control antibody (clone LTF-2, 100 μg/mouse/injection, twice per week), with or without i.p. supplement of creatine.

CN(CC(=O)O)C(=N)N [creatine] was tested, and the tumor growth was “effectively suppressed tumor growth to a similar extent; also recorded: tumor suppression benefits”.
